Assay results reported in US20240207454A1, “NEURO-BEHAVIORAL ASSAY FOR PHYSIOLOGICAL EVALUATION OF WATER-SOLUBLE ANESTHETICS” (Northeastern University, priority 2022, published 2024).
Where “and” joins values, the source holds several entries; their conditions need not be identical. Equal entries are not always repeated.

Assays:
[1] = test system: Apteronotus leptorhynchus; experiment: Neuro-behavioral assay: chirps (EOD modulations); format: in vivo; details: for Number of chirps during the 30 min immediately following anesthesia (mean) / Number of chirps during the 30 min immediately following anesthesia (median) / Number of chirps during the 30 min immediately following anesthesia (range among fish): 2.5% urethane or 0.02% MS-222, n=8 fish
Description: Previous research has shown that transient modulations of the EOD may occur, both spontaneously and through stimulation with electric signal mimicking the EOD of a conspecific. These modulations are brief (several tens of milliseconds) and involve frequency increases. They are commonly referred to as ‘chirps.’
To identify chirp instances, the time-frequency data {(Tk, fk)}k=q^q+n^wind, q=1, . . . , M−nwind−1, was considered in a moving time window containing nwind+1 samples. The first and last nmed samples in each window are used to establish the instantaneous base frequency before chirping:
to the data set {(ξp,q, ϕp,q)}p=0^n^wind for each q=1, 2, . . . time window. This curve fitting was carried out over a fixed search range α∈[αmin, αmax] discretized evenly using nα+1 number points. For each q=1, 2, . . . time window, the coefficient of determination Rq,i^2 was computed for each point αi=αmin+i (αmax−αmin)/nα, i=0, . . . , nα of the discretized search range. Then, the fitted curve for each q=1, 2, . . . time window as Φ (ξ; ? ), with
Subsequently, using Algorithm 1, contiguous segments of successive windows are identified within qε and for each segment the time window q associated with the maximum ? value is reported together with the corresponding parameter ? and maximum frequency rise Δfq.
Nonlinear regression is performed on data points within these time windows using the three-parameter model Ψ(ξ; α, Δf, τ)=Δf Φ(ξ−τ; α) with initial parameters α= ? , Δf=Δfq, and τ=0. Finally,
as time instance, ? as maximum frequency rise and dchirp,q=ln(7+4√{square root over (3)})/αq is reported as duration of a chirp for each q reported time window with parameter estimates αq, ? , τq. Here the formula for chirp duration corresponds to the half prominence of Ψ(ξ; αq, ? , τq).
(§1) The experimental design is outlined in FIG. 2. To determine the baseline EOD frequency, the fish's EOD was recorded for 30 min. Then, the fish was transferred into a glass beaker containing either 2.5% urethane (Acros Organics, New Jersey, USA) or 0.02% MS-222 (Western Chemical, Washington, USA), each dissolved in water from the fish's isolation tank. As a control, the fish was moved into an identical glass beaker containing aquarium water only. The temperatures of the anesthetic solutions or the aquarium water in the beaker were similar (±1° C.) to the temperature of the water in the fish's isolation tank.
(§2) The fish was left in the anesthetic solution until both anal fin undulation and opercular movement ceased. It was then returned to its isolation tank where recording of the EOD continued for 180 min. For urethane anesthesia, treatment including transfer to and from the beaker took between 4-5 min. MS-222 anesthesia required longer exposure to the anesthetic so that the entire treatment lasted between 9-15 min. Control experiments were designed such that the handling of the fish and the time the fish spent outside its isolation tank were similar to the corresponding anesthesia experiments (urethane control: 5-8 min; MS-222 control: 7-10 min).
The method described in Eske et al. (2023) was employed for the detection of chirps. This method assumes that the frequency shape of chirps normalized by the peak frequency rise is described in time by function
where ξ is the time coordinate measured from the chirp's peak frequency and α is an unknown parameter identified by the chirp detection method (FIG. 2). This function closely matches the shape of type-2 chirps, and, though to a lesser extent, the shape of type-1 chirps. […]

[2] = test system: Apteronotus leptorhynchus; experiment: Neuro-behavioral assay: locomotor activity and induction of anesthesia; format: in vivo; details: for Treatment time until anal fin undulation and opercular movement ceased, including transfer to and from the beaker: 2.5% urethane or 0.02% MS-222 immersion
Procedure: FIG. 30 Locomotor activity inferred from amplitude fluctuations of the EOD. After recording of the baseline EOD for 6 min, the fish was transferred to a 0.02% MS-222 solution in aquarium water for 5 min. After return of the fish to its home tank, the EOD recording continued for 15 min. To determine the locomotor activity index, positive and negative deviations from an arbitrarily set threshold value of the amplitude were determined every 1 sec, and the standard deviation of the absolute values of these amplitude deviations were calculated for 30-sec time windows. […] Recovery of the locomotor activity occurred within some 2 min after the fish was returned to its home tank (filled circles).
as §1, §2
To examine the effect of eugenol on EOD frequency and chirping behavior, the following experiments were conducted using 8 fish (FIG. 11): First, the baseline EOD was recorded in the fish's home tank (50 cm×30 cm×30 cm) for 30 min. Then, for the 5-min treatment session, the shelter tube with the fish was transferred to a smaller (experimental) tank (30 cm×20 cm×20 cm) containing either eugenol dissolved in aquarium water at a certain concentration (30 μL/L, 45 μL/L, or 60 μL/L; ‘test condition’) or aquarium water only (‘control condition’). The temperature in the experimental tank was similar to the temperature in the home tank (median difference: ±0.2° C.). Finally, the shelter tube with the fish was returned to the home tank, where recording continued for 180 min. Throughout the 215 min of pre-treatment, treatment, and post-treatment, the recording of the EOD was interrupted only for a few seconds during which the fish was transferred between its home tank and the experimental tank. The order of the four treatment conditions was determined using a randomized complete block design. Each test or control experiment in a given fish was conducted on a different day.
Most of the time, fish in the shelter tube maintained an upright position, with their longitudinal axis parallel to the walls of the tube. Forward and backward swimming occurred frequently and appeared to be mediated primarily by high-frequency undulations of the anal fin. Sporadically, the fish made 180° turns around its vertical axis.
Neuro-Behavioral Assay extended to the monitoring of locomotor activity. The electric organ discharge (EOD) that is recorded as the assayed behavior contains not only information about the frequency and possible modulations of the EOD (‘chirps’) but also about the locomotor activity of the fish. […]

[3] = 0.02% MS-222, 5 min exposure (FIG. 30)

CCOC(N)=O [urethane] was tested, and the “Number of chirps during the 30 min immediately following anesthesia (mean)” value [1] was 1852 chirps and 1500 chirps, the “Number of chirps during the 30 min immediately following anesthesia (median)” value [1] was 1541 chirps and the “Number of chirps during the 30 min immediately following anesthesia (range among fish)” value [1] was 568-4434 chirps. The “Time T to which type-2 chirping at higher rates persists after exposure” value ([1]; 2.5% urethane, single recording (FIG. 20)) was about 4600 s and the “Treatment time until anal fin undulation and opercular movement ceased, including transfer to and from the beaker” value [2] was 4 to 5 min.

For C=CCc1ccc(O)c(OC)c1 [eugenol], the “Difference in increase in the number of chirps (30 min before vs 30 min after exposure): Median” value ([1]; eugenol 30 μL/L vs. Control) was 97.5, the “Difference in increase in the number of chirps between pairs of eugenol concentrations: Median” value ([1]; eugenol 45 μL/L vs. 30 μL/L) was 8 and the “Difference in increase in the number of chirps (30 min before vs 30 min after exposure): Median” value ([1]; eugenol 45 μL/L vs. Control) was 137. The “Difference in increase in the number of chirps between pairs of eugenol concentrations: Median” value ([1]; eugenol 60 μL/L vs. 30 μL/L) was 60.5, the “Difference in increase in the number of chirps between pairs of eugenol concentrations: Median” value ([1]; eugenol 60 μL/L vs. 45 μL/L) was 23 and the “Difference in increase in the number of chirps (30 min before vs 30 min after exposure): Median” value ([1]; eugenol 60 μL/L vs. Control) was 160. The “Fish in which anal fin continued undulating throughout the 5-min exposure” value ([2]; 30 μL/L eugenol) was 3 out of 8, the “Time after which body movements ceased (mean)” value ([2]; 30 μL/L eugenol, 8 fish) was 1.8 min and the “Time after which body movements ceased (range)” value ([2]; 30 μL/L eugenol, 8 fish) was 1 to 3 min. For the same compound, the “Time after which anal fin undulation stopped” value ([2]; 30 μL/L eugenol, the 5 fish in which it stopped) was 1 to 3 min, the “Time to anesthesia (total loss of equilibrium and cessation of any movement, including anal fin undulation)” value ([2]; 45 μL/L and 60 μl/L eugenol) was 1 to 4 min and the “Fish in which anal fin continued undulating throughout the 5-min exposure” value ([2]; 45 μL/L eugenol) was 1 out of 8. The “Time after which body movements ceased (mean)” value ([2]; 45 μL/L eugenol, 8 fish) was 1.4 min, the “Time after which body movements ceased (range)” value ([2]; 45 μL/L eugenol, 8 fish) was 1 to 2 min and the “Time after which anal fin ceased undulating” value ([2]; 45 μL/L eugenol, the 7 fish in which it ceased) was 1 to 3 min. For the same compound, the “Time after which body movements ceased (each fish)” value ([2]; 60 μL/L eugenol, 8 fish) was 1 min.

In the case of CCOC(=O)c1cccc(N)c1 [MS-222, 3-aminobenzoic acid ethyl ester methanesulfonate], the “Time chirp rates remained elevated after anesthesia” value ([1]; 0.02% MS-222) is reported as at most 3 h, the “Number of chirps during the 30 min immediately following anesthesia (mean)” value [1] is reported as 48 chirps and the “Number of chirps during the 30 min immediately following anesthesia (median)” value [1] is reported as 30 chirps. The “Number of chirps during the 30 min immediately following anesthesia (range among fish)” value [1] was 1-156 chirps, the “Time from start of exposure until locomotor activity drops dramatically” value [2, 3] was at most 2 min and the “Time to recovery of locomotor activity after return to home tank” value [2, 3] was at most 2 min. For the same compound, the “Treatment time until anal fin undulation and opercular movement ceased, including transfer to and from the beaker” value [2] was 9 to 15 min.
